In PubChem BioAssay (NCI):
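In this assay, cells in 96-well plates receive the compound at five concentrations for 48 hours. Endpoints are linearly interpolated between the surrounding concentrations. TGI is the concentration that stops growth completely.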

How the values were obtained:
Experiment in all cases: DTP human tumour cell line panel, 48 h
786-0 renal = system: 786-0 renal
A498 renal = system: A498 renal
A549 NSCLC = system: A549 NSCLC
ACHN renal = system: ACHN renal
CAKI-1 renal = system: CAKI-1 renal
CCRF-CEM leukemia = system: CCRF-CEM leukemia
COLO 205 colon = system: COLO 205 colon
DU-145 prostate = system: DU-145 prostate
EKVX NSCLC = system: EKVX NSCLC
HCC-2998 colon = system: HCC-2998 colon
HCT-116 colon = system: HCT-116 colon
HCT-15 colon = system: HCT-15 colon
HL-60(TB) leukemia = system: HL-60(TB) leukemia
HOP-62 NSCLC = system: HOP-62 NSCLC
HOP-92 NSCLC = system: HOP-92 NSCLC
HS 578T breast = system: HS 578T breast
HT29 colon = system: HT29 colon
IGROV1 ovarian = system: IGROV1 ovarian
K-562 leukemia = system: K-562 leukemia
KM12 colon = system: KM12 colon
LOX IMVI melanoma = system: LOX IMVI melanoma
M14 melanoma = system: M14 melanoma
MALME-3M melanoma = system: MALME-3M melanoma
MCF7 breast = system: MCF7 breast
MDA-MB-231 breast = system: MDA-MB-231 breast
MDA-MB-435 = system: MDA-MB-435
MDA-N = system: MDA-N
MOLT-4 leukemia = system: MOLT-4 leukemia
NCI-H226 lung = system: NCI-H226 lung
NCI-H23 lung = system: NCI-H23 lung
NCI-H460 lung = system: NCI-H460 lung
NCI-H522 lung = system: NCI-H522 lung
NCI/ADR-RES ovarian = system: NCI/ADR-RES ovarian
OVCAR-3 ovarian = system: OVCAR-3 ovarian
OVCAR-4 ovarian = system: OVCAR-4 ovarian
OVCAR-5 ovarian = system: OVCAR-5 ovarian
OVCAR-8 ovarian = system: OVCAR-8 ovarian
PC-3 prostate = system: PC-3 prostate
RPMI-8226 leukemia = system: RPMI-8226 leukemia
RXF 393 renal = system: RXF 393 renal
SF-268 CNS = system: SF-268 CNS
SF-295 CNS = system: SF-295 CNS
SF-539 CNS = system: SF-539 CNS
SK-MEL-2 melanoma = system: SK-MEL-2 melanoma
SK-MEL-28 melanoma = system: SK-MEL-28 melanoma
SK-MEL-5 melanoma = system: SK-MEL-5 melanoma
SK-OV-3 ovarian = system: SK-OV-3 ovarian
SN12C renal = system: SN12C renal
SNB-19 CNS = system: SNB-19 CNS
SNB-75 CNS = system: SNB-75 CNS
SR leukemia = system: SR leukemia
SW-620 colon = system: SW-620 colon
T-47D breast = system: T-47D breast
TK-10 renal = system: TK-10 renal
UACC-257 melanoma = system: UACC-257 melanoma
UACC-62 melanoma = system: UACC-62 melanoma
UO-31 renal = system: UO-31 renal
BT-549 breast = system: BT-549 breast
U251 CNS = system: U251 CNS

With `CC(C)(C)CC(C)(C)NC(=S)NO` the TGI (786-0 renal) was > 100 µM, the TGI (A498 renal) was > 100 µM and the TGI (A549 NSCLC) was > 100 µM. For the same compound, the TGI (ACHN renal) was > 100 µM, the TGI (CAKI-1 renal) was > 100 µM and the TGI (CCRF-CEM leukemia) was > 100 µM. For the same compound, the TGI (COLO 205 colon) was > 100 µM, the TGI (DU-145 prostate) was > 100 µM and the TGI (EKVX NSCLC) was > 100 µM. The TGI (HCC-2998 colon) was > 100 µM, the TGI (HCT-116 colon) was > 100 µM and the TGI (HCT-15 colon) was > 100 µM. The TGI (HL-60(TB) leukemia) was > 100 µM, the TGI (HOP-62 NSCLC) was > 100 µM and the TGI (HOP-92 NSCLC) was > 100 µM. The TGI (HS 578T breast) was > 100 µM, the TGI (HT29 colon) was > 100 µM and the TGI (IGROV1 ovarian) was > 100 µM. For the same compound, the TGI (K-562 leukemia) was > 100 µM, the TGI (KM12 colon) was > 100 µM and the TGI (LOX IMVI melanoma) was > 100 µM. The TGI (M14 melanoma) was > 100 µM, the TGI (MALME-3M melanoma) was > 100 µM and the TGI (MCF7 breast) was > 100 µM. For the same compound, the TGI (MDA-MB-231 breast) was > 100 µM, the TGI (MDA-MB-435) was > 100 µM and the TGI (MDA-N) was > 100 µM. The TGI (MOLT-4 leukemia) was > 100 µM, the TGI (NCI-H226 lung) was > 100 µM and the TGI (NCI-H23 lung) was > 100 µM. For the same compound, the TGI (NCI-H460 lung) was > 100 µM, the TGI (NCI-H522 lung) was > 100 µM and the TGI (NCI/ADR-RES ovarian) was > 100 µM. The TGI (OVCAR-3 ovarian) was > 100 µM, the TGI (OVCAR-4 ovarian) was > 100 µM and the TGI (OVCAR-5 ovarian) was > 100 µM. For the same compound, the TGI (OVCAR-8 ovarian) was > 100 µM, the TGI (PC-3 prostate) was > 100 µM and the TGI (RPMI-8226 leukemia) was > 100 µM. The TGI (RXF 393 renal) was > 100 µM, the TGI (SF-268 CNS) was > 100 µM and the TGI (SF-295 CNS) was > 100 µM. For the same compound, the TGI (SF-539 CNS) was > 100 µM, the TGI (SK-MEL-2 melanoma) was > 100 µM and the TGI (SK-MEL-28 melanoma) was > 100 µM. The TGI (SK-MEL-5 melanoma) was > 100 µM, the TGI (SK-OV-3 ovarian) was > 100 µM and the TGI (SN12C renal) was > 100 µM. For the same compound, the TGI (SNB-19 CNS) was > 100 µM, the TGI (SNB-75 CNS) was > 100 µM and the TGI (SR leukemia) was > 100 µM. For the same compound, the TGI (SW-620 colon) was > 100 µM, the TGI (T-47D breast) was > 100 µM and the TGI (TK-10 renal) was > 100 µM. For the same compound, the TGI (UACC-257 melanoma) was > 100 µM, the TGI (UACC-62 melanoma) was > 100 µM and the TGI (UO-31 renal) was > 100 µM.
In the case of `COc1ccc(C2OCCN2C)cc1` (configuration not stated), the TGI (786-0 renal) was > 100 µM, the TGI (A498 renal) was > 100 µM and the TGI (A549 NSCLC) was > 100 µM. For the same compound, the TGI (ACHN renal) was > 100 µM, the TGI (BT-549 breast) was > 100 µM and the TGI (CAKI-1 renal) was > 100 µM. The TGI (CCRF-CEM leukemia) was > 100 µM, the TGI (COLO 205 colon) was > 100 µM and the TGI (EKVX NSCLC) was > 100 µM. For the same compound, the TGI (HCT-116 colon) was > 100 µM, the TGI (HCT-15 colon) was > 100 µM and the TGI (HOP-62 NSCLC) was > 100 µM. For the same compound, the TGI (HOP-92 NSCLC) was > 100 µM, the TGI (HS 578T breast) was > 100 µM and the TGI (HT29 colon) was > 100 µM. For the same compound, the TGI (IGROV1 ovarian) was > 100 µM, the TGI (K-562 leukemia) was > 100 µM and the TGI (KM12 colon) was > 100 µM. The TGI (LOX IMVI melanoma) was > 100 µM, the TGI (M14 melanoma) was > 100 µM and the TGI (MALME-3M melanoma) was > 100 µM. For the same compound, the TGI (MCF7 breast) was > 100 µM, the TGI (MDA-MB-231 breast) was > 100 µM and the TGI (MDA-MB-435) was > 100 µM. For the same compound, the TGI (MDA-N) was > 100 µM, the TGI (MOLT-4 leukemia) was > 100 µM and the TGI (NCI-H226 lung) was > 100 µM. The TGI (NCI-H23 lung) was > 100 µM, the TGI (NCI-H460 lung) was > 100 µM and the TGI (NCI-H522 lung) was > 100 µM. The TGI (NCI/ADR-RES ovarian) was > 100 µM, the TGI (OVCAR-3 ovarian) was > 100 µM and the TGI (OVCAR-4 ovarian) was > 100 µM. For the same compound, the TGI (OVCAR-5 ovarian) was > 100 µM, the TGI (OVCAR-8 ovarian) was > 100 µM and the TGI (PC-3 prostate) was > 100 µM. The TGI (RPMI-8226 leukemia) was > 100 µM, the TGI (RXF 393 renal) was > 100 µM and the TGI (SF-268 CNS) was > 100 µM. For the same compound, the TGI (SF-295 CNS) was > 100 µM, the TGI (SF-539 CNS) was > 100 µM and the TGI (SK-MEL-2 melanoma) was > 100 µM. The TGI (SK-MEL-5 melanoma) was > 100 µM, the TGI (SK-OV-3 ovarian) was > 100 µM and the TGI (SNB-19 CNS) was > 100 µM. For the same compound, the TGI (SNB-75 CNS) was > 100 µM, the TGI (SR leukemia) was > 100 µM and the TGI (SW-620 colon) was > 100 µM. The TGI (T-47D breast) was > 100 µM, the TGI (TK-10 renal) was > 100 µM and the TGI (U251 CNS) was > 100 µM. For the same compound, the TGI (UACC-257 melanoma) was > 100 µM, the TGI (UACC-62 melanoma) was > 100 µM and the TGI (UO-31 renal) was > 100 µM.
For `CO[C@H]1O[C@@H]2CO[C@@H](c3ccccc3)O[C@H]2[C@@H]2C/C=C\CCC[C@@]12O`, the TGI (786-0 renal) was 33 µM, the TGI (A498 renal) was 29 µM and the TGI (A549 NSCLC) was > 100 µM. The TGI (ACHN renal) was 38.1 µM, the TGI (BT-549 breast) was 43.8 µM and the TGI (CAKI-1 renal) was > 100 µM. The TGI (CCRF-CEM leukemia) was > 100 µM, the TGI (COLO 205 colon) was 33.6 µM and the TGI (DU-145 prostate) was 51.8 µM. The TGI (EKVX NSCLC) was 45.8 µM, the TGI (HCC-2998 colon) was 26.4 µM and the TGI (HCT-116 colon) was 30.9 µM. It also gave a TGI (HCT-15 colon) of 76.5 µM, a TGI (HL-60(TB) leukemia) of 51.2 µM and a TGI (HOP-62 NSCLC) of 35.5 µM. The TGI (HOP-92 NSCLC) was 43.7 µM, the TGI (HT29 colon) was 40.3 µM and the TGI (IGROV1 ovarian) was 96.2 µM. It also gave a TGI (K-562 leukemia) of 51.1 µM, a TGI (KM12 colon) of 54.9 µM and a TGI (LOX IMVI melanoma) of 32.4 µM. For the same compound, the TGI (M14 melanoma) was 45.9 µM, the TGI (MCF7 breast) was 44.9 µM and the TGI (MDA-MB-231 breast) was 68.4 µM. For the same compound, the TGI (MDA-MB-435) was 52.9 µM, the TGI (MDA-N) was 60.8 µM and the TGI (MOLT-4 leukemia) was 42.2 µM. It also gave a TGI (NCI-H226 lung) of 40 µM, a TGI (NCI-H23 lung) of 52.7 µM and a TGI (NCI-H460 lung) of 33 µM. For the same compound, the TGI (NCI-H522 lung) was 43.4 µM, the TGI (NCI/ADR-RES ovarian) was 88.3 µM and the TGI (OVCAR-3 ovarian) was 30.5 µM. The TGI (OVCAR-4 ovarian) was > 100 µM, the TGI (OVCAR-5 ovarian) was 52.5 µM and the TGI (OVCAR-8 ovarian) was > 100 µM. For the same compound, the TGI (PC-3 prostate) was 77.1 µM, the TGI (RPMI-8226 leukemia) was 44.2 µM and the TGI (RXF 393 renal) was 33.2 µM. For the same compound, the TGI (SF-268 CNS) was 43.3 µM, the TGI (SF-295 CNS) was 42 µM and the TGI (SK-MEL-2 melanoma) was 34.2 µM. The TGI (SK-MEL-28 melanoma) was 89.1 µM, the TGI (SK-MEL-5 melanoma) was 31.7 µM and the TGI (SK-OV-3 ovarian) was 99.7 µM. For the same compound, the TGI (SN12C renal) was 32.5 µM, the TGI (SNB-19 CNS) was > 100 µM and the TGI (SNB-75 CNS) was > 100 µM. The TGI (SR leukemia) was 49.4 µM, the TGI (SW-620 colon) was 81.6 µM and the TGI (T-47D breast) was > 100 µM. For the same compound, the TGI (TK-10 renal) was > 100 µM, the TGI (U251 CNS) was 40.2 µM and the TGI (UACC-257 melanoma) was 43.2 µM. The TGI (UACC-62 melanoma) was 30.7 µM and the TGI (UO-31 renal) was > 100 µM.
